Here are results for 14 molecules from patent US4795812A, “4-substituted-6-aryl-pyrimidine compounds” (The Upjohn Company, priority 1986, dated 1989).

Values after ≈ are worked out from the molar mass of the structure shown. Read-outs that look alike come from different tables or passages of the source.

Holding throughout (format): cell-based
The subject of test [1] is L-1210 mouse leukemia cells. Nature of the test: L-1210 tube dilution assay, inhibition of mouse leukemia cell growth in vitro. To be noted: for inhibition of growth of L-1210 cells (in words): in vitro; for IC50 / IC90: Mus musculus. An excerpt: ID50 and ID90 refer to the concentration of compound needed to inhibit cell growth by 50 and 90 percent, respectively.
A further test concerns P. vulgaris. Kind of test: In vitro disk plate assay, Proteus vulgaris. The settings on record: 18 h; Proteus vulgaris; above-identified in vitro disk plate assay; medium not given. The procedure: (§1) The antibacterial spectrum of 4-(1-azindinyl)-6-phenyl-2-pyrimidinamine was determined in an in vitro disk plate assay. The assay procedure is as follows:
(§2) A solution of 4-(1-aziridinyl)-6-phenyl-2-pyrimidinamine was prepared at 1 mg/ml in distilled water. Paper assay disks (1/2 inch) were dripped into the solution and spotted on seeded agar trays.

A further test concerns test organisms. Nature of the test: In vitro disk plate assay, test organisms other than Proteus vulgaris. The procedure: as §1, §2
The mark [2] stands for this setting: L1210 cells in vitro, 50 percent inhibition of cell growth, read-out: L1210 ID50.
Where [3] appears, read: L1210 cells in vitro, 90 percent inhibition of cell growth, read-out: L1210 ID90.

`Nc1nc(Cl)cc(-c2ccccc2)n1` [Example 1, 4-chloro-6-phenyl-2-pyrimidinamine]: the “inhibition of growth of L-1210 cells (in words)” value (“inhibition … (in words)” for short) in test [1] is on record as “inhibit the growth of L-1210 mouse leukemia cells in vitro”. The zone of inhibition – broadly, the size of the clear area around the sample on an inoculated plate – at 1000 µg/mL in the test on P. vulgaris is 20 mm. The “antibacterial activity against the other test organisms (in words)” value in the test with test organisms was “No other antibacterial activity against the test organisms was observed”. `Nc1nc(-c2ccccc2)c(Br)c(N2CC2)n1` [Example 3, 4-(1-aziridyl)-5-bromo-6-phenyl-2-pyrimidinamine]: the “inhibition … (in words)” value in test [1] is on record as “inhibit the growth of L-1210 mouse leukemia cells in vitro”.

With `Nc1nc(Cl)c(F)c(-c2ccccc2)n1` [Example 4, 4-chloro-5-fluoro-6-phenyl-2-pyrimidinamine], in test [1], the “inhibition … (in words)” value was “inhibit the growth of L-1210 mouse leukemia cells in vitro”. On to `Nc1nc(NCCN2CC2)c(F)c(-c2ccccc2)n1` [Example 5, N'-[2-(1-aziridyl)ethyl]-5-fluoro-6-phenyl-2,4-pyrimidinediamine], for which the “inhibition … (in words)” value in test [1] was “inhibit the growth of L-1210 mouse leukemia cells in vitro”. On the same count and under the same terms, with `Nc1nc(Cl)c(Br)c(-c2ccccc2)n1` [Example 6, 5-bromo-4-chloro-6-phenyl-2-pyrimidinamine] the entry was “inhibit the growth of L-1210 mouse leukemia cells in vitro”; with `Nc1nc(Cl)c(Cl)c(-c2ccccc2)n1` [Example 7, 4,5-dichloro-6-phenyl-2-pyrimidinamine], “inhibit the growth of L-1210 mouse leukemia cells in vitro”. As to `Nc1nc(Cl)c(I)c(-c2ccccc2)n1` [Example 8, 4-chloro-5-iodo-6-phenyl-2-pyrimidinamine], the “inhibition … (in words)” value in test [1] is “inhibit the growth of L-1210 mouse leukemia cells in vitro”.

Consider `Nc1nc(-c2ccccc2)c(Br)c(N2CC2)n1` [drawing 5], for which, in test [1] (L1210, read-out: L1210 ID50), the IC50 worked out at 1.2 µg/mL (≈ 4.12 µM). Moreover, in test [1] (L1210, read-out: L1210 ID90), the IC90 turned out to be 3.2 µg/mL (≈ 11 µM). In the case of `Nc1nc(NCCN2CC2)c(F)c(-c2ccccc2)n1` [drawing 6], the IC50 in test [1] (L1210, read-out: L1210 ID50) came out at 0.78 µg/mL (≈ 2.85 µM). Moreover, in test [1] (L1210, read-out: L1210 ID90), the IC90 amounted to 2.1 µg/mL (≈ 7.68 µM). Regarding `Nc1nc(Cl)c(F)c(-c2ccccc2)n1` [drawing 7], in test [1] (setting [2]), the IC50 was 0.18 µg/mL (≈ 0.805 µM). In addition, in test [1] (setting [3]), the IC90 was 0.55 µg/mL (≈ 2.46 µM).

For the molecule `Nc1nc(Cl)c(Cl)c(-c2ccccc2)n1` [drawing 8], in test [1] (setting [2]), the IC50 stood at 0.91 µg/mL (≈ 3.79 µM). Further, the IC90 in test [1] (setting [3]) is 2.1 µg/mL (≈ 8.75 µM). Consider `Nc1nc(Cl)c(I)c(-c2ccccc2)n1` [drawing 9], for which the IC50 in test [1] (setting [2]) is 1.8 µg/mL (≈ 5.43 µM). Moreover, in test [1] (setting [3]), the IC90 amounted to 3.9 µg/mL (≈ 11.8 µM). The corresponding values for `Nc1nc(Cl)c(Br)c(-c2ccccc2)n1` [drawing 10] are 0.64 µg/mL (≈ 2.25 µM) and 1.6 µg/mL (≈ 5.62 µM). Turning to `Nc1nc(Cl)cc(-c2ccccc2)n1` [drawing 11], in test [1] (setting [2]), the IC50 is 8.2 µg/mL (≈ 39.9 µM). In addition, the IC90 in test [1] (setting [3]) was 19 µg/mL (≈ 92.4 µM).
